According to patent publication US20250197409A1, “BIFUNCTIONAL COMPOUND AND PHARMACEUTICAL COMPOSITION COMPRISING THE BIFUNCTIONAL COMPOUND, AND METHOD FOR TREATING ANDROGEN RECEPTOR RELATED DISEASE BY USING THE SAME” (ANHORN MEDICINES CO., LTD., priority 2022, published 2025):
Where two headings read alike, the source gives them in different places.

Molecular target: T1, androgen receptor (Homo sapiens, UniProt P10275, T878A)
T1 construct: host or cells: LNCaP.FGC
Assay: Androgen receptor degradation assay using Western blot analysis
Type: cell-based
Procedure, shortened: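 LNCaP.FGC cells (2×10^5/well) treated with 10-fold serial dilutions in RPMI from 100 nM stock; untreated cells as negative control. AR Western signal normalized to GAPDH, expressed as % remaining versus untreated (100%). DC50 derived from calibration curve of serial dilutions.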

[1] = 24 h, LNCaP.FGC cells, 100 nM, 24 hr, normalized to GAPDH, untreated cells = 100%; read-out: Androgen Receptor Remaining (%)
[2] = 24 h, read-out: Androgen Receptor Remaining (%), LNCaP.FGC cells, 100 nM, 24 hr, normalized to GAPDH, untreated cells = 100%
[3] = read-out: AR DC50 (concentration needed for 50% AR degradation); LNCaP.FGC cells, serial 10x dilutions from 100 nM
[4] = LNCaP.FGC cells, serial 10x dilutions from 100 nM; read-out: AR DC50 (concentration needed for 50% AR degradation)
[5] = LNCaP.FGC cells, 100 nM, 24 hr, normalized to GAPDH, untreated cells = 100%

T1 sequence (P10275 whole entry T878A): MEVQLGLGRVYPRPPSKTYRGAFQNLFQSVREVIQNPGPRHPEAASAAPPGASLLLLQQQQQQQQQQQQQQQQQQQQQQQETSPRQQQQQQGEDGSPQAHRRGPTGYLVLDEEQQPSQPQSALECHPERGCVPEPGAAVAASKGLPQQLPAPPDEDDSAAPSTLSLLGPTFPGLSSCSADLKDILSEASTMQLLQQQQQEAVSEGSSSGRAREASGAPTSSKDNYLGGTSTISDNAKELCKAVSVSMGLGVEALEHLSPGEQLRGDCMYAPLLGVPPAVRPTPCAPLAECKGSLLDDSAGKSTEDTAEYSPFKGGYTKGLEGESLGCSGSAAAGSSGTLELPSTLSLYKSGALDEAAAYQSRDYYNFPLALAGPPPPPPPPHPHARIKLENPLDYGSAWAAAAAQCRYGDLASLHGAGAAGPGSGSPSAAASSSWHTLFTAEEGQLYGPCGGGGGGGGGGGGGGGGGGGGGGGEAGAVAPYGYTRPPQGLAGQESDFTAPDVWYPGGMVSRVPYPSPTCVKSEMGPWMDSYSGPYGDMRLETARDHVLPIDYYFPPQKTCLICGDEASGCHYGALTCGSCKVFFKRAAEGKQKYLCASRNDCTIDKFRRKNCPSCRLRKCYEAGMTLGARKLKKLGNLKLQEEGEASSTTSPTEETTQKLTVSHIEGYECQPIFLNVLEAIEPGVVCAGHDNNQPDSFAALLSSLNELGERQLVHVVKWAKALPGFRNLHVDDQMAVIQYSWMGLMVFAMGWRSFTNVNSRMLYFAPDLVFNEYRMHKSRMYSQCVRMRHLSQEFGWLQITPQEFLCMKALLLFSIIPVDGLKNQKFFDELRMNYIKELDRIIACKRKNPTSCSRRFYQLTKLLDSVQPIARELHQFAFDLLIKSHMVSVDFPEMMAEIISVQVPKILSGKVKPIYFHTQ
T1 sequence (Q96SW2 whole entry partner): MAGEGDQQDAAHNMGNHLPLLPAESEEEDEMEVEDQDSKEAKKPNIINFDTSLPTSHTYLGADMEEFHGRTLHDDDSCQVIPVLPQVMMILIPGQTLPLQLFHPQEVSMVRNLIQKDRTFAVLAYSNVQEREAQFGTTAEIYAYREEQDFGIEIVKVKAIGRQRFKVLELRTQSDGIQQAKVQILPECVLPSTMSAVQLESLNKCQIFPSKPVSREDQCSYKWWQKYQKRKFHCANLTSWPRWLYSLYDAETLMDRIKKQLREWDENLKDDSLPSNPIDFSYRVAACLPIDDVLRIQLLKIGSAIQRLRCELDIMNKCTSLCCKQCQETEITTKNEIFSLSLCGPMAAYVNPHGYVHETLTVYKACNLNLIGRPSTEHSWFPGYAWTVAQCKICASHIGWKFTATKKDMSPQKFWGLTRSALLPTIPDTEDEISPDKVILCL

| Structure (SMILES) | remaining activity at 0.1 µM [2] [%] | DC50 [3] [nM] | also measured |
| --- | --- | --- | --- |
| Cn1c2c(c3ccc(NC(=O)CN4CCC5(CC4)CN(c4ccc(C(=O)N[C@H]6C(C)(C)[C@H](Oc7ccc(C#N)c(Cl)c7)C6(C)C)nn4)C5)cc31)C(=O)N(C1CCC(=O)NC1=O)C2=O (stereo partly shown) [Compound 69] |  |  | remaining activity at 0.1 µM [1]: 51% |
| Cn1c2c(c3ccc(NC(=O)CN4CCN(c5ccc(C(=O)N[C@H]6CC[C@H](Oc7ccc(C#N)c(Cl)c7)CC6)cn5)CC4)cc31)C(=O)N(C1CCC(=O)NC1=O)C2=O (stereo partly shown) [Compound 66] |  |  | remaining activity at 0.1 µM [1]: 100% |
| CCn1c2c(c3ccc(OCCCN4CCC5(CC4)CN(c4ccc(C(=O)N[C@H]6CC[C@H](Oc7ccc(C#N)c(Cl)c7)CC6)nn4)C5)cc31)C(=O)N(C1CCC(=O)NC1=O)C2=O (stereo partly shown) [Compound 48] | 20 | < 10 |  |
| CCn1c2c(c3ccc(OCCN4CCC(C5CCN(c6ccc(C(=O)N[C@H]7CC[C@H](Oc8ccc(C#N)c(Cl)c8)CC7)nn6)CC5)CC4)cc31)C(=O)N(C1CCC(=O)NC1=O)C2=O (stereo partly shown) [Compound 158] | 13 | 10 to 25 |  |
| CCn1c2c(c3ccc(OCC(=O)N4CCCN(c5ccc(C(=O)N[C@H]6CC[C@H](N(C)c7ccc(C#N)c(Cl)c7)CC6)nn5)CC4)cc31)C(=O)N(C1CCC(=O)NC1=O)C2=O (stereo partly shown) [Compound 131] | 51 |  |  |
| CC(COc1ccc2c3c(n(C)c2c1)C(=O)N(C1CCC(=O)NC1=O)C3=O)CN1CCN(c2ccc(C(=O)N[C@H]3CC[C@H](Oc4ccc(C#N)c(Cl)c4)CC3)nn2)CC1 (stereo partly shown) [Compound 188] |  |  | DC50 [4]: 25 to 100 nM |
| CCn1c2c(c3ccc(OCCCN4CCC5(CCN(c6ccc(C(=O)N[C@H]7CC[C@H](Oc8ccc(C#N)c(Cl)c8)CC7)nn6)C5)C4)cc31)C(=O)N(C1CCC(=O)NC1=O)C2=O (stereo partly shown) [Compound 132] | 7 | 10 to 25 |  |
| CCn1c2c(c3ccc(OCCCN4CCN(c5ccc(C(=O)N[C@H]6CC[C@H](Oc7ccc(C#N)c(Cl)c7)CC6)nn5)CC4=O)cc31)C(=O)N(C1CCC(=O)NC1=O)C2=O (stereo partly shown) [Compound 151] | 57 |  |  |
| CCn1c2c(c3ccc(OC(C)CCN4CCC(c5ccc(C(=O)N[C@H]6CC[C@H](Oc7ccc(C#N)c(Cl)c7)CC6)nn5)CC4)cc31)C(=O)N(C1CCC(=O)NC1=O)C2=O (stereo partly shown) [Compound 211] |  | < 10 |  |
| CCn1c2c(c3ccc(OCCOC4CC5(CCN(c6ccc(C(=O)N[C@H]7CC[C@H](N(C)c8ccc(C#N)c(Cl)c8)CC7)nn6)C5)C4)cc31)C(=O)N(C1CCC(=O)NC1=O)C2=O (stereo partly shown) [Compound 164] | 31 | 10 to 25 |  |
| CCn1c2c(c3ccc(OCCCCCN4CCN(c5ccc(C(=O)N[C@H]6CC[C@H](N(C)c7ccc(C#N)c(Cl)c7)CC6)nn5)CC4)cc31)C(=O)N(C1CCC(=O)NC1=O)C2=O (stereo partly shown) [Compound 116] | 37 | 25 to 100 |  |
| CCn1c2c(c3ccc(OCC(=O)N4CC5(CCN(c6ccc(C(=O)N[C@H]7CC[C@H](N(C)c8ccc(C#N)c(Cl)c8)CC7)nn6)C5)C4)cc31)C(=O)N(C1CCC(=O)NC1=O)C2=O (stereo partly shown) [Compound 146] | 62 |  |  |
| CCn1c2c(c3ccc(OCC(C)CN4CCN(c5ccc(C(=O)N[C@H]6CC[C@H](Oc7ccc(C#N)c(Cl)c7)CC6)nn5)CC4)cc31)C(=O)N(C1CCC(=O)NC1=O)C2=O (stereo partly shown) [Compound 192] |  | 25 to 100 |  |
| CCn1c2c(c3ccc(OCCN4CCN(c5ccc(N6C(=S)N(c7ccc(C#N)c(C(F)(F)F)c7)C(=O)C6(C)C)cc5)CC4)cc31)C(=O)N(C1CCC(=O)NC1=O)C2=O (stereo not shown) [Compound 118] | 80 |  |  |
| Cn1c2c(c3ccc(OCCCN4CC=C(c5ccc(C(=O)N[C@H]6CC[C@H](Oc7ccc(C#N)c(Cl)c7)CC6)nn5)CC4)cc31)C(=O)N(C1CCC(=O)NC1=O)C2=O (stereo partly shown) [Compound 196] |  |  | DC50 [4]: < 10 nM |
| CCn1c2c(c3ccc(OCCCN4CCN(c5ccc(N6C(=S)N(c7ccc(C#N)c(C(F)(F)F)c7)C(=O)C6(C)C)cc5)CC4)cc31)C(=O)N(C1CCC(=O)NC1=O)C2=O (stereo not shown) [Compound 117] | 56 |  |  |
| Cn1c2c(c3ccc(OCCOC4CCN(c5ccc(C(=O)N[C@H]6CC[C@H](N(C)c7ccc(C#N)c(Cl)c7)CC6)nn5)CC4)cc31)C(=O)N(C1CCC(=O)NC1=O)C2=O (stereo partly shown) [Compound 169] | 27 | 10 to 25 |  |
| CCn1c2c(c3ccc(OCCCN4CC5(CCN(c6ccc(C(=O)N[C@H]7CC[C@H](Oc8ccc(C#N)c(Cl)c8)CC7)nn6)CC5)C4)cc31)C(=O)N(C1CCC(=O)N(CO)C1=O)C2=O (stereo partly shown) [Compound 95] | 1 | 10 to 25 |  |
| CCn1c2c(c3ccc(OCCN4CCC5(CC4)CN(c4ccc(C(=O)N[C@H]6CC[C@H](Oc7ccc(C#N)c(Cl)c7)CC6)nn4)C5)cc31)C(=O)N(C1CCC(=O)NC1=O)C2=O (stereo partly shown) [Compound 81] | 9 | < 10 |  |
| Cn1c2c(c3ccc(OCCCN4CCN(c5ccc(C(=O)N[C@H]6C(C)(C)[C@H](Oc7ccc(C#N)c(Cl)c7)C6(C)C)nc5)CC4)cc31)C(=O)N(C1CCC(=O)NC1=O)C2=O (stereo partly shown) [Compound 11] |  |  | remaining activity at 0.1 µM [1]: 73% |
| CCn1c2c(c3ccc(OCCCN4CCN(c5ccc(C(=O)N[C@H]6CC[C@H](N(C)c7ccc(C#N)c(Cl)c7)CC6)nn5)CC4)cc31)C(=O)N(C1CCC(=O)NC1=O)C2=O (stereo partly shown) [Compound 78] | 57 | 10 to 25 |  |
| Cn1c2c(c3ccc(OCCOC4CC5(CCN(c6ccc(C(=O)N[C@H]7CC[C@H](N(C)c8ccc(C#N)c(Cl)c8)CC7)nn6)C5)C4)cc31)C(=O)N(C1CCC(=O)NC1=O)C2=O (stereo partly shown) [Compound 175] |  | 10 to 25 |  |
| CCn1c2c(c3ccc(OCCCN4CC5(CCN(c6ccc(C(=O)N[C@H]7CC[C@H](Oc8ccc(C#N)c(Cl)c8)CC7)nn6)CC5)C4)cc31)C(=O)N(C1CCC(=O)NC1=O)C2=O (stereo partly shown) [Compound 96] |  | 10 to 25 | Androgen Receptor Remaining (%) [5]: 1% |
| CCn1c2c(c3ccc(OCCCN4CC5CCC(C4)N5c4ccc(C(=O)N[C@H]5CC[C@H](Oc6ccc(C#N)c(Cl)c6)CC5)nn4)cc31)C(=O)N(C1CCC(=O)NC1=O)C2=O (stereo partly shown) [Compound 71] | 77 |  |  |
| CCn1c2c(c3ccc(OCCCCN4C5CCC4CN(c4ccc(C(=O)N[C@H]6CC[C@H](Oc7ccc(C#N)c(Cl)c7)CC6)nn4)C5)cc31)C(=O)N(C1CCC(=O)NC1=O)C2=O (stereo partly shown) [Compound 100] | 44 | 25 to 100 |  |
| CCn1c2c(c3ccc(OCCOCC4CCN(c5ccc(C(=O)N[C@H]6CC[C@H](Oc7ccc(C#N)c(Cl)c7)CC6)nn5)CC4)cc31)C(=O)N(C1CCC(=O)NC1=O)C2=O (stereo partly shown) [Compound 138] | 39 | 25 to 100 |  |
| CCn1c2c(c3ccc(OCCN4CC=C(c5ccc(C(=O)N[C@H]6CC[C@H](N(C)c7ccc(C#N)c(Cl)c7)CC6)nn5)CC4)cc31)C(=O)N(C1CCC(=O)NC1=O)C2=O (stereo partly shown) [Compound 202] |  | 25 to 100 |  |
| CCn1c2c(c3ccc(OCCOCCN4CCN(c5ccc(C(=O)N[C@H]6CC[C@H](Oc7ccc(C#N)c(Cl)c7)CC6)nn5)CC4)cc31)C(=O)N(C1CCC(=O)NC1=O)C2=O (stereo partly shown) [Compound 115] |  | 25 to 100 | Androgen Receptor Remaining (%) [5]: 26% |
| CCCn1c2c(c3ccc(OCCCN4CCN(c5ccc(C(=O)N[C@H]6C(C)(C)[C@H](Oc7ccc(C#N)c(Cl)c7)C6(C)C)cc5)CC4)cc31)C(=O)N(C1CCC(=O)NC1=O)C2=O (stereo partly shown) [Compound 23] | 88 |  |  |
| CCn1c2c(c3ccc(OCCN4CCCN(c5ccc(C(=O)N[C@H]6C(C)(C)[C@H](Oc7ccc(C#N)c(Cl)c7)C6(C)C)nn5)CC4)cc31)C(=O)N(C1CCC(=O)NC1=O)C2=O (stereo partly shown) [Compound 53] | 77 |  |  |
